How the values were obtained:
Hexokinase-2 [1] = biological target: T1, Hexokinase-2 (Homo sapiens, UniProt P52789); test: Inhibition of His-tagged human HK2 (17 to 916 residues) expressed in Escherichia coli BL21(DE3) using glucose as substrate after 45 mins by ADP-glo assay in presence of MgATP
T1 sequence (P52789 whole entry): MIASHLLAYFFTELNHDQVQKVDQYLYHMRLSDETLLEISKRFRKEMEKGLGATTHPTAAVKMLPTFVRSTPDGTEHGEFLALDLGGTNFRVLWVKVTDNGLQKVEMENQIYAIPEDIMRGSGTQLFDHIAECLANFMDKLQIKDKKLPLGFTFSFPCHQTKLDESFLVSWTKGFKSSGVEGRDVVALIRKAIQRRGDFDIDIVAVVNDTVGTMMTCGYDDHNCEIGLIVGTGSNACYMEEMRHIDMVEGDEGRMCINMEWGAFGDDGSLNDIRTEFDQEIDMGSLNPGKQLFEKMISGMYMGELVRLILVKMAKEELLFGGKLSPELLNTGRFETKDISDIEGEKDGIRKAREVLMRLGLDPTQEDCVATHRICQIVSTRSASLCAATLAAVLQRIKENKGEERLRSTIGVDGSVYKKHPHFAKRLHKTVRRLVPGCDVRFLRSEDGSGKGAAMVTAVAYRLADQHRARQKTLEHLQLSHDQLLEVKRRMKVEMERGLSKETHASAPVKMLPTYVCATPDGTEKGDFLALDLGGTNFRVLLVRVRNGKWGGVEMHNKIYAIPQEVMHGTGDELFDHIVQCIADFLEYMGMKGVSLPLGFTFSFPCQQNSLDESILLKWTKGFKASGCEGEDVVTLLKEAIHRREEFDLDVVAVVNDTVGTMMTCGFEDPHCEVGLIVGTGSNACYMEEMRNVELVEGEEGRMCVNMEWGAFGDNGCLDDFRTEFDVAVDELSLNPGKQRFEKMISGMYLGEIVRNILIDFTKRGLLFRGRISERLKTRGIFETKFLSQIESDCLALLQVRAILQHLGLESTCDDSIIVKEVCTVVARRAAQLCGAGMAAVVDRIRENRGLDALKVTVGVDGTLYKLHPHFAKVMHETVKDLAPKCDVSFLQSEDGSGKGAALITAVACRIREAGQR

Hexokinase-1 = biological target: T2, Hexokinase-1 (Homo sapiens, UniProt P19367); test: Inhibition of His-tagged human HK1 (11 to 917 residues) expressed in Escherichia coli BL21(DE3) using glucose as substrate after 45 mins by ADP-glo assay in presence of MgATP
T2 sequence (P19367 whole entry): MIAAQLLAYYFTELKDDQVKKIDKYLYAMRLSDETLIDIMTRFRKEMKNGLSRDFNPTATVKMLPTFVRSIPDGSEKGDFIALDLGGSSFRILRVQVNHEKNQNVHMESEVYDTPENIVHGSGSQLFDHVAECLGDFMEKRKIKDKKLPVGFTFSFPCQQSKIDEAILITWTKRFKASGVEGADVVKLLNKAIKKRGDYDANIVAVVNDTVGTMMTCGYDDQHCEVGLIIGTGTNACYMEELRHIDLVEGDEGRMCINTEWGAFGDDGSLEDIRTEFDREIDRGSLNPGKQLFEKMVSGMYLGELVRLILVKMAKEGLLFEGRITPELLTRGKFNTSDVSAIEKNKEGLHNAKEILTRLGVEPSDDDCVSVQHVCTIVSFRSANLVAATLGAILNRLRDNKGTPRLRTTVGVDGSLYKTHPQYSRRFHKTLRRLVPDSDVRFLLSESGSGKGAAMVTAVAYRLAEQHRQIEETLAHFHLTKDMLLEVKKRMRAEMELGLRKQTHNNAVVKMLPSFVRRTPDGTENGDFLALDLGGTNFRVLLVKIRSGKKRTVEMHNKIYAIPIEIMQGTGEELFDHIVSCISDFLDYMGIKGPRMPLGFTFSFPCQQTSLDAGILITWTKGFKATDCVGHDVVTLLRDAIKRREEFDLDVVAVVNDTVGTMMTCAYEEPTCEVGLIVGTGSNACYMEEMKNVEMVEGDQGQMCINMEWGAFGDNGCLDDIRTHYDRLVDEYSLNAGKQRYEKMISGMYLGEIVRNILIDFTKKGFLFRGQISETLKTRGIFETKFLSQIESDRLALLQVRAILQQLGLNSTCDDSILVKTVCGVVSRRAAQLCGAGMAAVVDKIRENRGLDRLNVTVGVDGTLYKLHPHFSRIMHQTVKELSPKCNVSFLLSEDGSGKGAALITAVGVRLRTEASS

Hexokinase-2 [2] = biological target: T1, Hexokinase-2; test: Inhibition of HK2 in human UM-UC-3 cells using 2FDG as substrate assessed as suppression of G6P production preincubated for 30 mins followed by substrate treatment for 90 mins by resazurin assay; assay type: cell-based, UMUC3
Hexokinase-2 [3] = biological target: T1, Hexokinase-2; test: Competitive inhibition of His-tagged human HK2 (17 to 916 residues) expressed in Escherichia coli BL21(DE3) assessed as formation of G6P by continuous G6P dehydrogenase coupled assay in presence of glucose
Hexokinase-4 = biological target: T3, Hexokinase-4 (Homo sapiens, UniProt P35557); test: Inhibition of HK4 (unknown origin)
T3 sequence (P35557 whole entry): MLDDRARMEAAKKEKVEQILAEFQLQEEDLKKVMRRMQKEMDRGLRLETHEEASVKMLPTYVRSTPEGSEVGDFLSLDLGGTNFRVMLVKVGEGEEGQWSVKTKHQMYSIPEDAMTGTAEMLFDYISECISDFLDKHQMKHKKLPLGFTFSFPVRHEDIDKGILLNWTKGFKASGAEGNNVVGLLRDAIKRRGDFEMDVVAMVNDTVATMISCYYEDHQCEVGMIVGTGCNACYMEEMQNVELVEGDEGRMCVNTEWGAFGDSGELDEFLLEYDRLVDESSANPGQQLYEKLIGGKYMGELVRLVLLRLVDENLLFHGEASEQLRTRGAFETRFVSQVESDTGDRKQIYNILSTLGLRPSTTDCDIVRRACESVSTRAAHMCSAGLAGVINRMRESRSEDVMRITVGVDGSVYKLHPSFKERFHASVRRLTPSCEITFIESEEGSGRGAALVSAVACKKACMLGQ

| SMILES | IC50 (Hexokinase-2 [1]) [nM] | IC50 (Hexokinase-1) [nM] | IC50 (Hexokinase-2 [2]) [nM] | Ki (Hexokinase-2 [3]) [nM] | IC50 (Hexokinase-4) [nM] |
| --- | --- | --- | --- | --- | --- |
| O=C(C=C1CCC(C(F)(F)F)CC1)N[C@H]1C(O)O[C@H](CO)[C@@H](O)[C@@H]1O (stereo not given in full) | 16000 | 160000 |  |  |  |
| N#Cc1ccc(-c2cc(C(=O)N[C@H]3C(O)O[C@H](CO)[C@@H](O)[C@@H]3O)cc(C(F)(F)F)c2)cc1 (stereo not given in full) | 790 | 40 |  |  |  |
| O=C(N[C@H]1C(O)O[C@H](CO)[C@@H](O)[C@@H]1O)c1cccc(-c2ccccc2)c1 (stereo not given in full) | 3200 | 790 |  |  |  |
| O=C(/C=C/c1ccc(Cl)c(Cl)c1)N[C@H]1C(O)O[C@H](CO)[C@@H](O)[C@@H]1O (stereo not given in full) | 6300 | 2000 |  | 2900 |  |
| O=C(/C=C/c1ccc(Cl)c(Cl)c1)N[C@H]1CO[C@H](CO)[C@@H](O)[C@@H]1O | > 400000 | > 200000 |  |  |  |
| O=C(N[C@H]1C(O)O[C@H](CNS(=O)(=O)c2ccccc2)[C@@H](O)[C@@H]1O)c1cccc(-c2ccccc2)c1 (stereo not given in full) | 790 | 160 |  |  |  |
| O=C(N[C@H]1C(O)O[C@H](CO)[C@@H](O)[C@@H]1O)c1cc([N+](=O)[O-])cc([N+](=O)[O-])c1 (stereo not given in full) | 2000 | 2000 |  |  |  |
| COC1O[C@H](CO)[C@@H](O)[C@H](O)[C@H]1NC(=O)/C=C/c1ccc(Cl)c(Cl)c1 (stereo not given in full) | > 400000 | > 200000 |  |  |  |
| COC(=O)c1cc(S(=O)(=O)NC[C@H]2OC(O)[C@H](NC(=O)c3cccc(Br)c3)[C@@H](O)[C@@H]2O)oc1C (stereo not given in full) | 630 | 1600 |  |  |  |
| O=C(N[C@H]1C(O)O[C@H](CO)[C@@H](O)[C@@H]1O)c1ccc(-c2ccccc2)cc1 (stereo not given in full) | 16000 | 13000 |  |  |  |
| Cc1ccc(S(=O)(=O)NC[C@H]2OC(O)[C@H](NC(=O)/C=C/c3ccc(Cl)c(Cl)c3)[C@@H](O)[C@@H]2O)cc1 (stereo not given in full) | 2000 | 2000 |  |  |  |

The next molecules have a lower IC50 (Hexokinase-2 [1]) than those just listed; values first:

| IC50 (Hexokinase-2 [1]) [nM] | IC50 (Hexokinase-1) [nM] | IC50 (Hexokinase-2 [2]) [nM] | Ki (Hexokinase-2 [3]) [nM] | IC50 (Hexokinase-4) [nM] | SMILES |
| --- | --- | --- | --- | --- | --- |
| 25 | 7.9 |  |  |  | COc1cc(C(=O)N[C@H]2C(O)O[C@H](CNS(=O)(=O)c3cccc(Cl)c3Cl)[C@@H](O)[C@@H]2O)cc(-c2ccc(C#N)cc2)c1 (stereo not given in full) |
| 130 | 10000 |  |  |  | O=[N+]([O-])c1cccc(S(=O)(=O)N[C@H]2C(O)O[C@H](CNS(=O)(=O)c3cccc(Cl)c3Cl)[C@@H](O)[C@@H]2O)c1 (stereo not given in full) |
| 100 | 16 |  |  |  | O=C(N[C@H]1C(O)O[C@H](CNS(=O)(=O)c2ccccc2Cl)[C@@H](O)[C@@H]1O)c1cccc(-c2ccccc2)c1 (stereo not given in full) |
| 10 | 20 |  |  |  | Cc1oc(S(=O)(=O)NC[C@H]2OC(O)[C@H](NC(=O)c3cccc(Br)c3)[C@@H](O)[C@@H]2O)cc1C(=O)O (stereo not given in full) |
| 100 | 20 |  |  |  | O=C(N[C@H]1C(O)O[C@H](CNS(=O)(=O)c2cnccc2Cl)[C@@H](O)[C@@H]1O)c1cccc(-c2ccccc2)c1 (stereo not given in full) |
| 130 | 63000 | 520 |  |  | O=S(=O)(N[C@H]1C(O)O[C@H](CNS(=O)(=O)c2cccc(Cl)c2Cl)[C@@H](O)[C@@H]1O)c1ccc(Cl)s1 (stereo not given in full) |
| 320 | 160 |  |  |  | O=C(N[C@H]1C(O)O[C@H](CNS(=O)(=O)c2cccc(Cl)c2)[C@@H](O)[C@@H]1O)c1cccc(-c2ccccc2)c1 (stereo not given in full) |
| 25 | 5000 | 470 |  |  | O=S(=O)(N[C@H]1C(O)O[C@H](CNS(=O)(=O)c2cccc(Cl)c2Cl)[C@@H](O)[C@@H]1O)c1cccc(-c2ccccc2)c1 (stereo not given in full) |
| 50 | 25 |  |  |  | O=C(O)c1cccc(S(=O)(=O)NC[C@H]2OC(O)[C@H](NC(=O)c3cccc(-c4ccccc4)c3)[C@@H](O)[C@@H]2O)c1 (stereo not given in full) |
| 25 | 32 | 200 |  | 3500 | O=C(N[C@H]1C(O)O[C@H](CNS(=O)(=O)c2cccc(Cl)c2Cl)[C@@H](O)[C@@H]1O)c1cccc(-c2ccccc2)c1 (stereo not given in full) |
| 130 | 7.9 |  |  |  | N#Cc1ccc(S(=O)(=O)NC[C@H]2OC(O)[C@H](NC(=O)c3cccc(-c4ccccc4)c3)[C@@H](O)[C@@H]2O)cc1 (stereo not given in full) |
| 50 | > 20000 |  |  |  | O=S(=O)(N[C@H]1C(O)O[C@H](CNS(=O)(=O)c2cccc(Cl)c2Cl)[C@@H](O)[C@@H]1O)c1ccc(Cl)c(Cl)c1 (stereo not given in full) |
| 7.9 | 1000 |  |  |  | O=S(=O)(N[C@H]1C(O)O[C@H](CNS(=O)(=O)c2cccc(Cl)c2Cl)[C@@H](O)[C@@H]1O)c1cccc(-c2ccc(Cl)cc2)c1 (stereo not given in full) |
| 40 | 2000 |  |  |  | O=C(N[C@H]1C(O)O[C@H](CNS(=O)(=O)c2cccc(Cl)c2Cl)[C@@H](O)[C@@H]1O)c1ccc(Cl)s1 (stereo not given in full) |

Source: ChEMBL document CHEMBL3804808, “Discovery of a Novel 2,6-Disubstituted Glucosamine Series of Potent and Selective Hexokinase 2 Inhibitors” (ACS Med Chem Lett, 2016)
